pEC50, pKi: −log10 of the molar value. Like-named read-outs stand apart in the source and are kept apart here.
Columns and labels:
PI3Kα = PI3Kα (Homo sapiens, UniProt P42336); test: PI3K binding assay (lipid kinase reaction, ADP-Glo), PI3K alpha; format: biochemical; conditions: for pKi: read-out: PI3Kα Ki
Procedure: (§1) Reactions are carried out using the following conditions for each PI3K isoform as in Table 5.
(§2) All reactions are carried out at room temperature. […] The reaction is started by the addition of 2 μL ATP/MgCl2. The kinase reaction buffer contains 50 mM HEPES, 50 mM NaCl 3 mM MgCl2, 0.01% BSA, 1% DMSO, and enzyme and substrate concentrations as indicated in the above table. The reaction is stopped by the addition of 10 μL ADP-Glo reagent. Plates are read in a Perkin Elmer Envision system using luminescence mode. 10 point dose response curves are generated for each test compound. Ki values for each compound are determined using the Morrison Equation.

PI3Kδ = PI3Kδ (Homo sapiens, UniProt O00329); test: PI3K binding assay (lipid kinase reaction, ADP-Glo), PI3K delta; format: biochemical
Procedure: as §1, §2

P-PRAS40 SW48(E545K) = test: Inhibition of P-PRAS40 in SW48 isogenic cells, PI3Kα mutant E545K; format: cell-based; conditions: for pEC50: Homo sapiens, SW48, 24 hours of compound treatment, read-out: P-PRAS40 SW48(E545K) EC50; for Fold Selectivity for SW48(E545K) vs. SW48(parental): EC50 potency ratio
Procedure: (§3) All statistics were performed using KaleidaGraph Software (version 4.1.3). A Student t-Test was performed using unpaired data with equal variance to compare activity against mutant cells and wild-type cells. P<0.05 is considered to be significant.
(§4) The following assays are intended for determining the cellular potency and mutant selectivity of small molecule PI3Kα inhibitors. […] Mutant selectivity of PI3Kα inhibitors is determined by EC50 potency ratios in the WT vs. E545K cell lines and WT vs. H1047R cell lines.
(§5) The three cell lines (WT, E545K, and H1047R) are plated and assayed in parallel. The following day, test compounds are serially diluted in dimethyl sulfoxide (DMSO) and added to cells (final DMSO concentration 0.5%). […] Cell lysates are added to assay plates pre-coated with antibodies against phosphorylated PRAS40. Phosphorylated PRAS40 in samples are allowed to bind to the capture antibodies overnight at 4° C. The detection antibody (anti-total PRAS40, labeled with an electrochemiluminescent SULFO-TAG) is added to the bound lysate and incubated for 1 hour at room temperature. The MSD Read Buffer is added such that when a voltage is applied to the plate electrodes, the labels bound to the electrode surface emit light. The MSD Sector Instrument measures the intensity of the light, and quantitatively measures the amount of phosphor-PRAS40 in the sample. Percent inhibition of PRAS40 phosphorylation by varying concentrations of test compounds is calculated relative to untreated controls. EC50 values are calculated using the 4 parameter logistic nonlinear regression dose-response model.

P-PRAS40 SW48(H1047R) = test: Inhibition of P-PRAS40 in SW48 isogenic cells, PI3Kα mutant H1047R; format: cell-based; conditions: for pEC50: Homo sapiens, SW48, 24 hours of compound treatment, read-out: P-PRAS40 SW48(H1047R) EC50; for Fold Selectivity for SW48(H1047R) vs. SW48(parental): EC50 potency ratio
Procedure: as §3, §4, §5

P-PRAS40 SW48(parental) = test: Inhibition of P-PRAS40 in SW48 isogenic cells, PI3Kα wild-type (parental); conditions: Homo sapiens, SW48, 24 h
Procedure: The three cell lines (WT, E545K, and H1047R) are plated and assayed in parallel. The following day, test compounds are serially diluted in dimethyl sulfoxide (DMSO) and added to cells (final DMSO concentration 0.5%). Cells are then incubated for 24 hours at 37° C. and 5% CO2. […] Cell lysates are added to assay plates pre-coated with antibodies against phosphorylated PRAS40. Phosphorylated PRAS40 in samples are allowed to bind to the capture antibodies overnight at 4° C. The detection antibody (anti-total PRAS40, labeled with an electrochemiluminescent SULFO-TAG) is added to the bound lysate and incubated for 1 hour at room temperature. The MSD Read Buffer is added such that when a voltage is applied to the plate electrodes, the labels bound to the electrode surface emit light. The MSD Sector Instrument measures the intensity of the light, and quantitatively measures the amount of phosphor-PRAS40 in the sample. Percent inhibition of PRAS40 phosphorylation by varying concentrations of test compounds is calculated relative to untreated controls. EC50 values are calculated using the 4 parameter logistic nonlinear regression dose-response model.

PI3Kβ = PI3Kβ (Homo sapiens, UniProt P42338); test: PI3K binding assay (lipid kinase reaction, ADP-Glo), PI3K beta; format: biochemical; conditions: Table 2A; first value of cell (ADP-Glo, Example 901)
Procedure: as §1, §2

PI3Kγ = PI3Kγ (Homo sapiens, UniProt P48736); test: PI3K binding assay (lipid kinase reaction, ADP-Glo), PI3K gamma; format: biochemical; conditions: Table 2A; first value of cell (ADP-Glo, Example 901)
Procedure: as §1, §2

[1] = Table 2B comparator compounds, first value of cell (ADP-Glo)
[2] = Table 2A, first value of cell (ADP-Glo, Example 901)
[3] = Table 2A, selectivity ratio (fold)
[4] = Table 3A, p value (Student t-Test) given
[5] = read-out: P-PRAS40 SW48(parental) EC50 (nM)

Sequence of PI3Kβ (P42338 whole entry): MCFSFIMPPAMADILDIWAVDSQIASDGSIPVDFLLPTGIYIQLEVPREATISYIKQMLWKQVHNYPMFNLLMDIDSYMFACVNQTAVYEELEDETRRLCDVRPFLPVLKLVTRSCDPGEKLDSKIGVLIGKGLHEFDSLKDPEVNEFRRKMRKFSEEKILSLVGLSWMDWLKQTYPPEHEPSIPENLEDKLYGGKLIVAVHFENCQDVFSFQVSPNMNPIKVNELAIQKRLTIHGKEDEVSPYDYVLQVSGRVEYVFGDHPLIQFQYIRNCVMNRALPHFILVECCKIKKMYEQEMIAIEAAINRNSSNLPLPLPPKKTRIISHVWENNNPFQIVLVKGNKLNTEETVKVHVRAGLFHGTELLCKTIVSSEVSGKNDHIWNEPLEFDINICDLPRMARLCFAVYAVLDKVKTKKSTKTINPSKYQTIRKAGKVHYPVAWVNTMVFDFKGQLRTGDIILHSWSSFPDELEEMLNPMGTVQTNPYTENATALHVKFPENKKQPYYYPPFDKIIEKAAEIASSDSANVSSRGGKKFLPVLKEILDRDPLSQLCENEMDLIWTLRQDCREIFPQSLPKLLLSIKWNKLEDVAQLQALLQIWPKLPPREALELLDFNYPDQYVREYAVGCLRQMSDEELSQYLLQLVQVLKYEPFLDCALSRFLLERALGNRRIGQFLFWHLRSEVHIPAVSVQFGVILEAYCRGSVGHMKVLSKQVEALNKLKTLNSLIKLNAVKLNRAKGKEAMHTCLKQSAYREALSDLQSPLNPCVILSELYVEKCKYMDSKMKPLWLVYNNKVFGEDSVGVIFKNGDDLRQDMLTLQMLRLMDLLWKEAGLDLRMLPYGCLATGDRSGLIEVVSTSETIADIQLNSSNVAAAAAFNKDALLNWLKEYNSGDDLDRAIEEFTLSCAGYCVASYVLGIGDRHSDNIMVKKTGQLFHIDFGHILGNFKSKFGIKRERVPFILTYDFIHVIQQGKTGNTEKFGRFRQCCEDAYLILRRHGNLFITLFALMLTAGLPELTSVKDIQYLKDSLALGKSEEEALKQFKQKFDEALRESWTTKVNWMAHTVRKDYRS
Sequence of PI3Kβ (P27986 whole entry partner): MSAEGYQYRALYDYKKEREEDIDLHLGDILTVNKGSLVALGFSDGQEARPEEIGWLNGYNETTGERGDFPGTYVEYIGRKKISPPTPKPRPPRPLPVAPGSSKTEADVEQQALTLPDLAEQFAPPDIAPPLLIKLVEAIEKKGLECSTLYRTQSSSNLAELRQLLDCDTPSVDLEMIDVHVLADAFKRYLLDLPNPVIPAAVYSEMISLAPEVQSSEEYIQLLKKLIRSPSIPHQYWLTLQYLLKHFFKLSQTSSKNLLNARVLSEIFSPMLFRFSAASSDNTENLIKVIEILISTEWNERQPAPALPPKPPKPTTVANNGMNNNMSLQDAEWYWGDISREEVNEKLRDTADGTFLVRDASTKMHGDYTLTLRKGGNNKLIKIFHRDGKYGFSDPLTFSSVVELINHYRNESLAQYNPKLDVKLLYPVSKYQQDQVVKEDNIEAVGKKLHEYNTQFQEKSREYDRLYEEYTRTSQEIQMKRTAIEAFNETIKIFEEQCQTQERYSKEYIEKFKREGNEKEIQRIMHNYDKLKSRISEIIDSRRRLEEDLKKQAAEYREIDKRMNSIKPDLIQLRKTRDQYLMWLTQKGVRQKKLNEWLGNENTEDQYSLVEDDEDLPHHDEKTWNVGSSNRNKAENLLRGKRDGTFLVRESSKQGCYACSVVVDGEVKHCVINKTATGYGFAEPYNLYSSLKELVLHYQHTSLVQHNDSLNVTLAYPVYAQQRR
Sequence of PI3Kγ (P48736 whole entry): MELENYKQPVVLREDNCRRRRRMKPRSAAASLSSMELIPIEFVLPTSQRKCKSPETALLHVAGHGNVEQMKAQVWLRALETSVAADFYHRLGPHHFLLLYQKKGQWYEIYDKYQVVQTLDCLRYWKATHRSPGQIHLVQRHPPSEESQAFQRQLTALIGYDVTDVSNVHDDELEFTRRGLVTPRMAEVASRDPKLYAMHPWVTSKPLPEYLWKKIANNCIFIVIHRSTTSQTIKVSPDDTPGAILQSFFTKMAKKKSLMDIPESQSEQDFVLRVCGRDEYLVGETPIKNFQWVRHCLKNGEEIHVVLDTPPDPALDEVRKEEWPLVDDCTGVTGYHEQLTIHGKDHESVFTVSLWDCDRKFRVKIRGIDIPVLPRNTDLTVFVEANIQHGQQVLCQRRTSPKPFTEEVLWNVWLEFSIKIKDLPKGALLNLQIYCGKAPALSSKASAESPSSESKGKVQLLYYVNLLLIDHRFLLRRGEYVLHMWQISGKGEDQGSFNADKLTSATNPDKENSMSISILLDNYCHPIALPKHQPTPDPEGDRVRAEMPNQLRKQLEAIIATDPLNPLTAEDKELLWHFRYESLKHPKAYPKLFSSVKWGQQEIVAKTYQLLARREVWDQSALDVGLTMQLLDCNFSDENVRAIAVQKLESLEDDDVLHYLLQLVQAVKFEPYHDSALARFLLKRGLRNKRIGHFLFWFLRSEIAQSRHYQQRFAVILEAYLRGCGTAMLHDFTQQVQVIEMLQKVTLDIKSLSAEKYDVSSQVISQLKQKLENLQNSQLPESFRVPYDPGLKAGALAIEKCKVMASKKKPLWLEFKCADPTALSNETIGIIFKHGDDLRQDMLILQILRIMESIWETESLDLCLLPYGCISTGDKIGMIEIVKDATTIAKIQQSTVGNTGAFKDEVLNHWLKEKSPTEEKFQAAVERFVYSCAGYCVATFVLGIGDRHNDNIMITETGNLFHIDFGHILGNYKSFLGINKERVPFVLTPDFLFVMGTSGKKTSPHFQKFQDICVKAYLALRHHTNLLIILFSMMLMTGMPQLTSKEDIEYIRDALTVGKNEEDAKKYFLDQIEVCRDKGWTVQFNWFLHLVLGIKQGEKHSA
Sequence of PI3Kα (P42336 whole entry, canonical isoform): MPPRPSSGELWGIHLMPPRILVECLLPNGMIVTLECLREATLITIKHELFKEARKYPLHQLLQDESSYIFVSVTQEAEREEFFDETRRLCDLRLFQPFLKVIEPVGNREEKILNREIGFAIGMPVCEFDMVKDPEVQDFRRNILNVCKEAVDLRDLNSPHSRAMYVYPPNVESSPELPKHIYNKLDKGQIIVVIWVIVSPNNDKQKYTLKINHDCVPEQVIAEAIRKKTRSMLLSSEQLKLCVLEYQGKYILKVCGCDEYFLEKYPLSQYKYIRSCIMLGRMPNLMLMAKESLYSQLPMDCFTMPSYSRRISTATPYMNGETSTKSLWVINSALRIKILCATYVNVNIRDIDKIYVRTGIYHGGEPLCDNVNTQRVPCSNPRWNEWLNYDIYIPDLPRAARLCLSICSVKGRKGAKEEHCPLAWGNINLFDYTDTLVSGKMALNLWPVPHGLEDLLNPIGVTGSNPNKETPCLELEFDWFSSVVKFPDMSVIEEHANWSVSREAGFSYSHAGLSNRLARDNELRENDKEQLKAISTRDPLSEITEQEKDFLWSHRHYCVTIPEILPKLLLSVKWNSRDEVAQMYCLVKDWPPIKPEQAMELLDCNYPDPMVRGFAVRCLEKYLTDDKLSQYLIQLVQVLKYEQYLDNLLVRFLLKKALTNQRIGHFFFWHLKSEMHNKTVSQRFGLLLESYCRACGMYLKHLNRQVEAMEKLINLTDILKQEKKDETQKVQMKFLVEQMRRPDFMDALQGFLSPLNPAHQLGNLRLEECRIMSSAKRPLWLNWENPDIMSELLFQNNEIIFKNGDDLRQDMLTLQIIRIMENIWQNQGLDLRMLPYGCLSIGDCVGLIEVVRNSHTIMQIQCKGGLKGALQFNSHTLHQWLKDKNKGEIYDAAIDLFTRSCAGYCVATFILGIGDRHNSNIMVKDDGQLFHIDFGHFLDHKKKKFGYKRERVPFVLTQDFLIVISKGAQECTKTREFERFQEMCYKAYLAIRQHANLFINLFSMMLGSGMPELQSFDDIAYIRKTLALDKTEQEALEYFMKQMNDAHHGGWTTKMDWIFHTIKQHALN
Sequence of PI3Kα (P27986 whole entry partner, canonical isoform): as the sequence (P27986 whole entry partner) above
Sequence of PI3Kδ (O00329 whole entry): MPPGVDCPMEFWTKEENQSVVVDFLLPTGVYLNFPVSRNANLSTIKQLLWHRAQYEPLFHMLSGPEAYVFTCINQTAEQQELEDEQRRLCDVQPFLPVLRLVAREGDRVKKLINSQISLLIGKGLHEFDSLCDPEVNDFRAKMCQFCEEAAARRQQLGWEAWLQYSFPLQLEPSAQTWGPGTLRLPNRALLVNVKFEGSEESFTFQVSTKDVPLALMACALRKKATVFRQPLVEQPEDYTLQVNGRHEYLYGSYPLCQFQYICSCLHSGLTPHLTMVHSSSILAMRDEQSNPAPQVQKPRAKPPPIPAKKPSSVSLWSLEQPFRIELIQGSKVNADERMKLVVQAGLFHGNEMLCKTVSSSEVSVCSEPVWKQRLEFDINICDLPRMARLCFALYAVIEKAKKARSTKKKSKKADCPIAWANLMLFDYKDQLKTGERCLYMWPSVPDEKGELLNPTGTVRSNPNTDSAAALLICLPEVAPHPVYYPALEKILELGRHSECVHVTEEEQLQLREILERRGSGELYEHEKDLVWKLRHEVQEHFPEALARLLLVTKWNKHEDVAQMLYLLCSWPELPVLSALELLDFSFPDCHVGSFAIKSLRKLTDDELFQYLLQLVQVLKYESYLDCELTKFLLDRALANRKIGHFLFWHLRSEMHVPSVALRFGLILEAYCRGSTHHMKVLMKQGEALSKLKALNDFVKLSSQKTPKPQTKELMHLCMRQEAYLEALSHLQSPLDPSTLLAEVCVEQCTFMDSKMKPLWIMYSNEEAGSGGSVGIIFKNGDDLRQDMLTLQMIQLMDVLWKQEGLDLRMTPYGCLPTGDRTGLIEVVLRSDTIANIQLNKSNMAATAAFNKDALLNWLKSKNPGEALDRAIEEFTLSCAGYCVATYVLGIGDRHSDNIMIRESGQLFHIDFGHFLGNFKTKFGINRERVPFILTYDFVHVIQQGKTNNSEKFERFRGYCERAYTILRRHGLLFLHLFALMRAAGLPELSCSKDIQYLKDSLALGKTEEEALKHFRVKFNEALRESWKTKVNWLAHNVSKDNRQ
Sequence of PI3Kδ (P27986 whole entry partner): as the sequence (P27986 whole entry partner) above

Compound	Selectivity for PI3Kα vs. PI3Kδ (PI3Kα)	pKi (PI3Kα; [2])	Selectivity for PI3Kα vs. PI3K-β (PI3Kα; [3])	Selectivity for PI3Kα vs. PI3Kγ (PI3Kα; [3])	Selectivity for PI3Kα vs. PI3Kδ (PI3Kα; [3])	pKi (PI3Kβ)	pKi (PI3Kδ; [2])	pKi (PI3Kγ)	pEC50 (P-PRAS40 SW48(E545K); Table 3A, geometric mean)	Fold Selectivity for SW48(E545K) vs. SW48(parental) (P-PRAS40 SW48(E545K); [4])	pEC50 (P-PRAS40 SW48(H1047R); Table 3A, geometric mean)	Fold Selectivity for SW48(H1047R) vs. SW48(parental) (P-PRAS40 SW48(H1047R); [4])	EC50 (P-PRAS40 SW48(parental); [5]) [µM]	also measured
CC(C)(O)Cn1cc(-c2ccc3c(c2)OCCc2sc(N4C(=O)OCC4(C)C)nc2-3)cn1 [356 (U.S. Pat. No. 8,263,633), reference compound]	1	–	–	–	–	–	–	–	–	–	–	–	–	pKi (PI3Kα; [1]): 9.01; pKi (PI3Kδ; [1]): 9.04; pEC50 (P-PRAS40 SW48(E545K); Table 3B comparator compounds): 7.11; Fold Selectivity for SW48(E545K) vs. SW48(parental) (P-PRAS40 SW48(E545K); Table 3B): 4.0 (p < 0.001); pEC50 (P-PRAS40 SW48(H1047R); Table 3B comparator compounds): 7.10; Fold Selectivity for SW48(H1047R) vs. SW48(parental) (P-PRAS40 SW48(H1047R); Table 3B): 3.9 (p < 0.001); EC50 (P-PRAS40 SW48(parental); read-out: P-PRAS40 SW48(parental) EC50 (μM)): 0.31 µM
CC(C)[C@@H]1COC(=O)N1c1cn2c(n1)-c1ccc(O[C@@H](C)C(N)=O)cc1OCC2 [Compound 101, (S)-2-((2-((R)-4-isopropyl-2-oxooxazolidin-3-yl)-5,6-dihydrobenzo[f]imidazo[1,2-d][1,4]oxazepin-9-yl)oxy)propanamide]	–	9.10	488	91	23	6.41	7.73	7.14	7.48	2.1 (p < 0.001)	7.49	2.1 (p < 0.001)	0.0682	–
CC[C@@H]1COC(=O)N1c1cn2c(n1)-c1ccc(O[C@@H](C)C(N)=O)cc1OCC2 [Compound 104, (S)-2-((2-((R)-4-Ethyl-2-oxooxazolidin-3-yl)-5,6-dihydrobenzo[f]imidazo[1,2-d][1,4]oxazepin-9-yl)oxy)propanamide]	19	8.57	–	–	–	6.07	7.30	6.54	6.94	2.5 (p = 0.003)	6.96	2.6 (p = 0.003)	0.335	Selectivity for PI3Kα vs. PI3K-β (PI3Kα): 315; Selectivity for PI3Kα vs. PI3Kγ (PI3Kα): 107
NC(=O)[C@@H]1CCCN1c1ccc2c(c1)OCCn1cc(N3C(=O)OC[C@H]3C(F)F)nc1-2 [Compound 106, (S)-1-(2-((S)-4-(Difluoromethyl)-2-oxooxazolidin-3-yl)-5,6-dihydrobenzo[f]imidazo[1,2-d][1,4]oxazepin-9-yl)pyrrolidine-2-carboxamide]	–	10.28	1008	384	34	7.27	8.74	7.69	8.57	2.1 (p < 0.001)	8.54	1.9 (p < 0.001)	0.0055	–
C[C@H](Oc1ccc2c(c1)OCCn1cc(N3C(=O)OC[C@H]3C(F)F)nc1-2)C(N)=O [Compound 107, (S)-2-((2-((S)-4-(Difluoromethyl)-2-oxooxazolidin-3-yl)-5,6-dihydrobenzo[f]imidazo[1,2-d][1,4]oxazepin-9-yl)oxy)propanamide]	–	9.07	400	159	52	6.47	7.35	6.87	7.63	3.0 (p < 0.001)	7.59	2.7 (p < 0.001)	0.0692	–
NC(=O)[C@@H]1CCCN1c1ccc2c(c1)OCCn1cc(N3C(=O)OC[C@H]3CF)nc1-2 [Compound 108, (S)-1-(2-((S)-4-(Fluoromethyl)-2-oxooxazolidin-3-yl)-5,6-dihydrobenzo[f]imidazo[1,2-d][1,4]oxazepin-9-yl)pyrrolidine-2-carboxamide]	–	10.37	1421	557	46	7.22	8.71	7.62	8.54	2.1 (p < 0.001))	8.59	2.2 (p < 0.001)	0.0062	–
